The values below come from paper PMC12362796, “Bilirubin Targeting WNK1 to Alleviate NLRP3‐Mediated Neuroinflammation” (Advanced Science, 2025).

One series concerns primary astrocytes. In words: MQAE intracellular chloride measurement in primary astrocytes. The format is cell-based. The note with it: lacking KCC2 expression. The text has this:
(§1) Since bilirubin‐induced activation of WNK1 kinase activity increases [Cl⁻]i in neurons, we sought to elucidate the downstream effector proteins of WNK1 that are involved in this process. Neuronal [Cl⁻]i is primarily regulated by the Cl⁻‐K⁺ symporter KCC2, with additional modulation by factors such as the Na⁺‐K⁺‐Cl⁻ co‐transporter NKCC1, GABAA receptors, and glycine receptors (GlyR), all of which contribute to [Cl⁻]i homeostasis.^[ [31] ^] To investigate the mechanism underlying bilirubin‐induced changes in [Cl⁻]i, we selectively targeted these proteins using pharmacological inhibitors (VU0463271 for KCC2, bumetanide for NKCC1, bicuculline for GABAA receptors, and strychnine for GlyR) and activated KCC2 using CLP257.^[ [35], [36] ^] […] The bilirubin‐induced effect on [Cl⁻]i was not observed in primary astrocytes (Figure S15A,B, Supporting Information) or the HEK 293T cell line (Figure S15C, Supporting Information), both of which lacked KCC2 expression (Figure S16A,B, Supporting Information), further confirming that the effects of bilirubin and WNK1 on [Cl⁻]i elevation are dependent on KCC2.
(§2) Intracellular chloride concentration ([Cl⁻]i) was measured using the MQAE fluorescent dye (Life Technologies) following established protocols (Zhang, Lee et al. 2015). […]

A short description of series [1]: Osmolarity of different bilirubin concentrations. Format: physicochemical. The note with it: low concentrations of bilirubin. From the text:
To further investigate the impact of bilirubin on WNK1 kinase activity, we generated hippocampal neuron‐specific Wnk1 knockout mice. Given that conventional Wnk1 knockout mice are embryonically lethal, we employed the CRISPR/Cas9 method to create mice carrying the floxed Wnk1 gene. Then we crossed Thy1‐Cre mice with Wnk1^flox/flox mice to generate hippocampal neuron‐specific Wnk1 knockout mice. We examined the effects of bilirubin on the phosphorylation of WNK1 downstream targets, Ste20‐related proline alanine‐rich kinase (SPAK), and oxidative stress‐responsive kinase 1 (OSR1), in the hippocampus of Wnk1^flox/flox and Wnk1^flox/flox,Thy1‐Cre mice. Upon bilirubin treatment, phosphorylation of OSR1 and SPAK was elevated in the hippocampus of Wnk1^flox/flox mice. […] These findings indicate that the effect of bilirubin on OSR1 and SPAK phosphorylation is WNK1‐dependent (Figure 4B). To rule out the potential effects of osmolarity on the phosphorylation of WNK1, OSR1, and SPAK, we measured the osmolarity of different bilirubin concentrations.

Another series concerns the target T1, hWNK1(181–507 S382A) (Homo sapiens, UniProt Q9H4A3, S382A).
T1 construct: The kinase‐dead WNK1 mutant hWNK1(181–507 S382A) served as a negative control
The series is described as follows: ADP-Glo kinase assay, kinase-dead WNK1 mutant control. The note with it: negative control. Format: biochemical. From the text: Given the binding of bilirubin to the kinase domain of WNK1, we aimed to explore its effect on WNK1 with a particular focus on its kinase activity. To evaluate WNK1 kinase activity, we utilized an in vitro kinase enzyme assay system to quantify ADP production by the amino acid fragment 181–507 of human WNK1 (hWNK1) over a range of bilirubin concentrations. The kinase‐dead WNK1 mutant hWNK1(181–507 S382A) served as a negative control (Figure S10, Supporting Information).^[ [30] ^]
WNK1 kinase activity was measured using the ADP‐Glo Kinase Assay (Promega, Cat. V9101) following the manufacturer's instructions. Purified protein was incubated with bilirubin across a range of 12 serially diluted concentrations, beginning at a maximum concentration of 20 µM. After the incubation period, luminescence was recorded using a microplate reader (Synergy H1M, BioTek)

A further series addresses UnaG. Details: method as in PMID 23768684. The following applies: modified FABP family member derived from eel; cited from earlier work.
The test system of series [2] is cochlear nuclei and hippocampus neurons. In words: Neuronal excitability in cochlear nuclei and hippocampus neurons. The format is cell-based. From the text:
To ascertain whether bilirubin regulates chloride ions through WNK1, we generated Wnk1 gene knockout primary cultured neurons. We achieved neuron‐specific deletion of Wnk1 in hippocampal neurons by transducing primary neurons isolated from Wnk1^flox/flox embryonic mice with a lentivirus expressing hSyn‐Cre‐EGFP.^[ [33], [34] ^] […] Intracellular chloride concentration is crucial for modulating inhibitory synaptic transmission and, consequently, neuronal excitability.

In another series the test system is HEK 293T cell line. In words: MQAE intracellular chloride measurement in HEK 293T cell line. The format is cell-based, human. The following applies: lacking KCC2 expression.
From the text: as §1, §2

For a further series, the target named is T2, WNK1 (491–2382) (Homo sapiens, UniProt Q9H4A3).
T2 construct: different lengths of WNK1 truncations (1–491, 1–190, 191–491, 491–2382); expressed in transfected cells; host or cells: HEK293T
In words: MST, EGFP-tagged WNK1 truncation 491–2382. The format is binding. The note with it: WNK1 491–2382 (non-kinase segment), 15 min, HEK293T lysates. From the text: To further validate these findings, we constructed GFP‐tagged fusion proteins with different lengths of WNK1 truncations (1–491, 1–190, 191–491, 491–2382) based on the WNK1 domains (Figure 3E) and analyzed their binding capacity with bilirubin using MST analysis.^[ [29] ^]
All WNK1 clones were derived from the original untagged hWNK1 cDNA (NM_018979), which was modified and subcloned into the pcDNA3.1, referred to as “full‐length WNK1” throughout this study. Truncated constructs, including 1–190aa, 191–491aa, 1–491aa, and 491–2382aa fragments, were generated by PCR using the full‐length template and subsequently ligated into linearized pcDNA3.1 vectors. WNK2 was obtained from Addgene Plasmid #24569, and WNK3 was obtained from Addgene Plasmid #81723. Both were subjected to base modifications and cloned into pcDNA3.1. The WNK4 clone was derived from hWNK4 cDNA (NM_032387.5), modified, and subcloned into the pCMV3‐C‐GFPSpark vector.
In HEK293T cells, proteins tagged with green fluorescent protein (GFP) were expressed. The cells were lysed using the M‐PER Mammalian Protein Extraction Reagent (cat. no. 78505, Thermo Scientific) supplemented with protease inhibitors. Lysates were centrifuged at 12000 × g for 15 min at 4 °C, and the supernatant containing proteins was diluted 10‐fold with 1x PBST. […]

A further series concerns the target PPARα. More on the design: method as in PMID 37390966, PMID 34067839. The following applies: liver and adipose tissue; cited from earlier work.

By Kd is commonly meant a measure of binding affinity in units of concentration.

T1 sequence (Q9H4A3 181-507 S382A): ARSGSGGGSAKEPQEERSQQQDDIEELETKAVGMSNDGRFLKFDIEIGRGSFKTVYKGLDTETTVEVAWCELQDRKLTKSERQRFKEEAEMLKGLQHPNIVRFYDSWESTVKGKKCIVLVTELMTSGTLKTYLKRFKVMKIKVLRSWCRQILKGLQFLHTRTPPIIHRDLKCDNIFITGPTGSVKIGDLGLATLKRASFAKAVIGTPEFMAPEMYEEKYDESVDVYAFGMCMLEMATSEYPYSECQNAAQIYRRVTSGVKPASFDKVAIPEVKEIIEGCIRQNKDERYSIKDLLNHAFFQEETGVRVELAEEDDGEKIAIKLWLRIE
T2 sequence (Q9H4A3 491-2382): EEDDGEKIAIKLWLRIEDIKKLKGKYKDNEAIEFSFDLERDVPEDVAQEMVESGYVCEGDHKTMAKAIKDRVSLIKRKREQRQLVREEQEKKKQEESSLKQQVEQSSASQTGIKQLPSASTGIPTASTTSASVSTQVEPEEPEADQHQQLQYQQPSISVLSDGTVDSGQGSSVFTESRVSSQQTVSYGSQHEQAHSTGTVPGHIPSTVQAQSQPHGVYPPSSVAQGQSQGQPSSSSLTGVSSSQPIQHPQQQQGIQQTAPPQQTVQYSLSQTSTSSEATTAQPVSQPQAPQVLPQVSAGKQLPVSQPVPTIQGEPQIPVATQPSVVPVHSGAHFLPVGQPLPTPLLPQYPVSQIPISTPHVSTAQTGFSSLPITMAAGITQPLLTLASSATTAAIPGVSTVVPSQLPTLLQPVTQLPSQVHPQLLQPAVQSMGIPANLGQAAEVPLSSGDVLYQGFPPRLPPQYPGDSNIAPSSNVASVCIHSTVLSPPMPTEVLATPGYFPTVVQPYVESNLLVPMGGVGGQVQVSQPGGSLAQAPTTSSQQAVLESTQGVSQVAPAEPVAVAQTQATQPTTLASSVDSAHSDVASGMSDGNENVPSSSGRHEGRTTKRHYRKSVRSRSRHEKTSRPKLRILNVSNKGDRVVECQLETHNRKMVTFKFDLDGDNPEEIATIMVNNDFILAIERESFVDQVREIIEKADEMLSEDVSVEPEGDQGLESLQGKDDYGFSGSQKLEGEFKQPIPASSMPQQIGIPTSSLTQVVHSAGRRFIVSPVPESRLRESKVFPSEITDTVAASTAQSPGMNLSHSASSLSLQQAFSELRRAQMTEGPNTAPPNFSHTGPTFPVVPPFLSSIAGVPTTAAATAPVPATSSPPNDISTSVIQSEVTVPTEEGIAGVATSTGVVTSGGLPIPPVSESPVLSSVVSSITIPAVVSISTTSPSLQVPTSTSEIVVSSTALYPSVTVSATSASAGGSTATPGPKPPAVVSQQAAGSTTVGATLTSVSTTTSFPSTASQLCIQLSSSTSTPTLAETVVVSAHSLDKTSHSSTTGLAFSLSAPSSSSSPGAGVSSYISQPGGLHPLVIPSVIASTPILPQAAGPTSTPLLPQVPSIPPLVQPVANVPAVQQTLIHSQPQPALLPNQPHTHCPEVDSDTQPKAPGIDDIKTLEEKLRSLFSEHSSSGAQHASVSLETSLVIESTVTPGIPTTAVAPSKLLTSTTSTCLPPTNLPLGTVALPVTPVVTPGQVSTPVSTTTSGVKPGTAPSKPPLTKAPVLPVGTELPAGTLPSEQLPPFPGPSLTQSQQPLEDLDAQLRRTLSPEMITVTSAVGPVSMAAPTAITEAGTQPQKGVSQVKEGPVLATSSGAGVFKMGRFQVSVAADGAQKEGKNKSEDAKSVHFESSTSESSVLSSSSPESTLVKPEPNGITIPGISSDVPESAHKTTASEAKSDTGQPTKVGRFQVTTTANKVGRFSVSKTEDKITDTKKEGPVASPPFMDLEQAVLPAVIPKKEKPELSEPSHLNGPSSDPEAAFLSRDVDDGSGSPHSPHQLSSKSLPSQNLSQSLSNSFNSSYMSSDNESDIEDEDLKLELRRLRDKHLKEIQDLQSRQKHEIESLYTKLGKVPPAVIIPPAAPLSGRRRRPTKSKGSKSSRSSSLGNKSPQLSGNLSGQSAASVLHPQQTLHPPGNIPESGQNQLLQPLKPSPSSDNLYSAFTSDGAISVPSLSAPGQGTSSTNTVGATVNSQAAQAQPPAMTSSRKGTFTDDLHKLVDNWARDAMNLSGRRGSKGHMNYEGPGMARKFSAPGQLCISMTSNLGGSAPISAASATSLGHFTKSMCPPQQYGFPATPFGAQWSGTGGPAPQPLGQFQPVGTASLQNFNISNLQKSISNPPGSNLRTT

For the compound `C=CC1=C(C)/C(=C/c2[nH]c(Cc3[nH]c(/C=C4\NC(=O)C(C)=C4C=C)c(C)c3CCC(=O)O)c(CCC(=O)O)c2C)NC1=O` [bilirubin, Bilirubin], the “bilirubin-induced effect on [Cl−]i” value in the series with primary astrocytes and with HEK 293T cell line was “not observed” in each case. Besides, in series [1], the osmolarity entry is listed as “didn't change the osmolarity”. In addition, the “effect on kinase activity of kinase-dead mutant” value on hWNK1(181–507 S382A) was “no effect”. In addition, the Kd at UnaG is 0.098 nM; on WNK1 (491–2382), 3.19 µM; at PPARα, 5.13 µM. Also, the neural excitability result in series [2] is on record as “induces neural hyperexcitability”.
